One block for each compound: values may come before it. Activity calls are given as the source filed them. The calls are words filed in the database; no cut-off is given here.
How the values were obtained:
TE-1 [1] = assay: Antiproliferative activity against human TE1 cells assessed as reduction in cell viability incubated for 72 hrs by SRB assay; assay type: functional, cell-based; details: for IC50: TE-1, 72 h
MCF7 = assay: Antiproliferative activity against human MCF7 cells assessed as reduction in cell viability incubated for 72 hrs by SRB assay; assay type: functional, cell-based; details: MCF7, 72 h
A549 = assay: Antiproliferative activity against human A549 cells assessed as reduction in cell viability incubated for 72 hrs by SRB assay; assay type: functional, cell-based; details: A549, 72 h
MGC-803 = assay: Antiproliferative activity against human MGC803 cells assessed as reduction in cell viability incubated for 72 hrs by SRB assay; assay type: functional, cell-based; details: MGC-803, 72 h
[2] = Solubility of compound in water; assay type: physicochemical; details: buffer
TE-1 [3] = assay: Inhibition of colony formation in human TE1 cells at 1 umol/l incubated for 24 hrs supplemented with fresh medium and measured after 7 days by crystal violet staining based assay relative to control; assay type: functional
TE-1 [4] = assay: Inhibition of colony formation in human TE1 cells incubated for 24 hrs supplemented with fresh medium and measured after 7 days by crystal violet staining based assay; assay type: functional, cell-based
TE-1 [5] = assay: Induction of apoptosis in human TE1 cells assessed as early apoptotic cells at 0.75 umol/L incubated for 48 hrs by annexin V-FITC and propidium iodide staining based flow cytometry (reference value: 0.9 %); assay type: functional
TE-1 [6] = assay: Induction of apoptosis in human TE1 cells assessed as late apoptotic cells at 0.75 umol/L incubated for 48 hrs by annexin V-FITC and propidium iodide staining based flow cytometry (reference value: 2.8 %); assay type: functional
TE-1 [7] = assay: Induction of apoptosis in human TE1 cells assessed as early apoptotic cells at 1.5 umol/L incubated for 48 hrs by annexin V-FITC and propidium iodide staining based flow cytometry (reference value: 0.9 %); assay type: functional
TE-1 [8] = assay: Induction of apoptosis in human TE1 cells assessed as late apoptotic cells at 1.5 umol/L incubated for 48 hrs by annexin V-FITC and propidium iodide staining based flow cytometry (reference value: 2.8 %); assay type: functional
TE-1 [9] = assay: Induction of apoptosis in human TE1 cells assessed as early apoptotic cells at 3 umol/L incubated for 48 hrs by annexin V-FITC and propidium iodide staining based flow cytometry (reference value: 0.9 %); assay type: functional
TE-1 [10] = assay: Induction of apoptosis in human TE1 cells assessed as late apoptotic cells at 3 umol/L incubated for 48 hrs by annexin V-FITC and propidium iodide staining based flow cytometry (reference value: 2.8 %); assay type: functional
TE-1 [11] = assay: Induction of ROS production in human TE1 cells at 0.75 umol/L incubated for 48 hrs by DCFH-DA staining based flow cytometry (reference value: 2.4 %); assay type: functional
TE-1 [12] = assay: Induction of ROS production in human TE1 cells at 1.5 umol/L incubated for 48 hrs by DCFH-DA staining based flow cytometry (reference value: 2.4 %); assay type: functional
TE-1 [13] = assay: Induction of ROS production in human TE1 cells at 3 umol/L incubated for 48 hrs by DCFH-DA staining based flow cytometry (reference value: 2.4 %); assay type: functional
Homo sapiens [14] = species on record: Homo sapiens; assay: Activation of SAPK/JNK signalling pathway in human TE1 cells assessed as increase in ASK1 phosphorylation at 1.5 and 3 umol/L incubated for 48 hrs by Western blot analysis; assay type: cell-based
Homo sapiens [15] = species on record: Homo sapiens; assay: Activation of SAPK/JNK signalling pathway in human TE1 cells assessed as increase in MKK4 phosphorylation at 0.75 to 3 umol/L incubated for 48 hrs by Western blot analysis; assay type: cell-based
Homo sapiens [16] = species on record: Homo sapiens; assay: Activation of SAPK/JNK signalling pathway in human TE1 cells assessed as increase in JNK phosphorylation at 0.75 to 3 umol/L incubated for 48 hrs by Western blot analysis; assay type: cell-based
TE-1 [17] = assay: Induction of apoptosis in human TE1 cells assessed as increase in Bax expression at 0.75 to 3 umol/L incubated for 48 hrs by Western blot analysis; assay type: functional, cell-based
TE-1 [18] = assay: Induction of apoptosis in human TE1 cells assessed as decrease in Bcl2 expression at 0.75 to 3 umol/L incubated for 48 hrs by Western blot analysis; assay type: functional, cell-based
TE-1 [19] = assay: Induction of apoptosis in human TE1 cells assessed as increase in Bax-Bcl2 ratio at 0.75 to 3 umol/L incubated for 48 hrs by Western blot analysis; assay type: functional, cell-based
TE-1 [20] = assay: Induction of apoptosis in human TE1 cells assessed as increase in cleaved caspase-3 level at 0.75 to 3 umol/L incubated for 48 hrs by Western blot analysis; assay type: functional, cell-based
TE-1 [21] = assay: Induction of apoptosis in human TE1 cells assessed as increase in cleaved caspase-9 level at 0.75 to 3 umol/L incubated for 48 hrs by Western blot analysis; assay type: functional, cell-based
TE-1 [22] = assay: Induction of apoptosis in human TE1 cells assessed as increase in cleaved PARP level at 0.75 to 3 umol/L incubated for 48 hrs by Western blot analysis; assay type: functional, cell-based
GES1 = assay: Cytotoxicity against human GES-1 cells assessed as reduction in cell viability by SRB assay; assay type: cell-based
TE-1 [23] = assay: Induction of apoptosis in human TE1 cells assessed as increase in Bad protein level at 0.75 to 3 umol/L incubated for 48 hrs by Western blot analysis; assay type: functional, cell-based
TE-1 [24] = assay: Induction of apoptosis in human TE1 cells assessed as increase in Bak protein level at 0.75 to 3 umol/L incubated for 48 hrs by Western blot analysis; assay type: functional, cell-based
TE-1 [25] = assay: Induction of apoptosis in human TE1 cells assessed as increase in NOXA protein level at 0.75 to 3 umol/L incubated for 48 hrs by Western blot analysis; assay type: functional, cell-based

IC50 (MCF7): 4.06 µM | IC50 (A549): 6.46 µM | IC50 (MGC-803): 5.43 µM | solubility [2]: Insoluble
Structure (SMILES): C=C1C(=O)[C@]23[C@H](OC(=O)[C@H](CCCCNC(=O)OC(C)(C)C)NC(=O)OC(C)(C)C)[C@H]1C[C@H](O)[C@H]2[C@]1(COC(C)=O)CCCC(C)(C)[C@H]1C[C@H]3OC
IC50 (TE-1 [1]): 2.76 µM

IC50 (MCF7): 3.08 µM | IC50 (A549): 5.46 µM | IC50 (MGC-803): 3.94 µM | solubility [2]: Insoluble
Structure (SMILES): C=C1C(=O)[C@]23[C@H](OC(=O)CN(C)C(=O)OC(C)(C)C)[C@H]1C[C@H](O)[C@H]2[C@]1(COC(C)=O)CCCC(C)(C)[C@H]1C[C@H]3OC
IC50 (TE-1 [1]): 1.45 µM

IC50 (MCF7): 5.1 µM | IC50 (A549): 7.51 µM | IC50 (MGC-803): 5.02 µM | solubility [2]: Soluble
Structure (SMILES): C=C1C(=O)[C@]23[C@H](OC(=O)[C@@H]4CCCN4)[C@H]1C[C@H](O)[C@H]2[C@]1(COC(C)=O)CCCC(C)(C)[C@H]1C[C@H]3OC.O=C(O)C(F)(F)F
IC50 (TE-1 [1]): 4.28 µM

IC50 (MCF7): 0.89 µM | IC50 (A549): 1.2 µM | IC50 (MGC-803): 1.5 µM | solubility [2]: Soluble
Structure (SMILES): C=C1C(=O)[C@]23[C@H](OC(=O)[C@H](Cc4ccccc4)NC)[C@H]1C[C@H](O)[C@H]2[C@]1(COC(C)=O)CCCC(C)(C)[C@H]1C[C@H]3OC.O=C(O)C(F)(F)F
inhibition (TE-1 [1]): Dose-dependent effect | IC50 (TE-1 [1]): 0.75 µM | inhibition at 1 µM (TE-1 [3]): 100% | inhibition (TE-1 [4]): Dose-dependent effect | Activity (TE-1 [5]): 2.8% | Activity (TE-1 [6]): 5.1% | Activity (TE-1 [7]): 5% | Activity (TE-1 [8]): 12% | Activity (TE-1 [9]): 8.7% | Activity (TE-1 [10]): 30.7% | Activity (TE-1 [11]): 10.4% | Activity (TE-1 [12]): 36.4% | Activity (TE-1 [13]): 73.1% | Activity (Homo sapiens [14]): Active | Activity (Homo sapiens [15]): Active | Activity (Homo sapiens [16]): Active | Activity (TE-1 [17]): Active | Activity (TE-1 [18]): Active | Activity (TE-1 [19]): Active | Activity (TE-1 [20]): Active | Activity (TE-1 [21]): Active | Activity (TE-1 [22]): Active | Activity (GES1): Tde and Dose-dependent effect | Activity (TE-1 [23]): Active | Activity (TE-1 [24]): Active | Activity (TE-1 [25]): Active

IC50 (MCF7): 7.89 µM | IC50 (A549): 1.62 µM | IC50 (MGC-803): 7.15 µM | solubility [2]: Soluble
Structure (SMILES): C=C1C(=O)[C@]23[C@H](OC(=O)CCCCN)[C@H]1C[C@H](O)[C@H]2[C@]1(COC(C)=O)CCCC(C)(C)[C@H]1C[C@H]3OC.O=C(O)C(F)(F)F
IC50 (TE-1 [1]): 3.16 µM

IC50 (MCF7): 3.2 µM | IC50 (A549): 1.89 µM | IC50 (MGC-803): 1.64 µM | solubility [2]: Soluble
Structure (SMILES): C=C1C(=O)[C@]23[C@H](OC(=O)[C@@H](NC)C(C)C)[C@H]1C[C@H](O)[C@H]2[C@]1(COC(C)=O)CCCC(C)(C)[C@H]1C[C@H]3OC.O=C(O)C(F)(F)F
IC50 (TE-1 [1]): 1.16 µM

IC50 (MCF7): 1.56 µM | IC50 (A549): 5.64 µM | IC50 (MGC-803): 3.06 µM | solubility [2]: Insoluble
Structure (SMILES): C=C1C(=O)[C@]23[C@H](OC(=O)CCCCNC(=O)OC(C)(C)C)[C@H]1C[C@H](O)[C@H]2[C@]1(COC(C)=O)CCCC(C)(C)[C@H]1C[C@H]3OC
IC50 (TE-1 [1]): 1.19 µM

IC50 (MCF7): 3.06 µM | IC50 (A549): 6.22 µM | IC50 (MGC-803): 3.22 µM | solubility [2]: Insoluble
Structure (SMILES): C=C1C(=O)[C@]23[C@H](OC(=O)[C@H](Cc4ccccc4)NC(=O)OC(C)(C)C)[C@H]1C[C@H](O)[C@H]2[C@]1(COC(C)=O)CCCC(C)(C)[C@H]1C[C@H]3OC
IC50 (TE-1 [1]): 2.44 µM

IC50 (MCF7): 2.18 µM | IC50 (A549): 3.72 µM | IC50 (MGC-803): 1.73 µM | solubility [2]: Insoluble
Structure (SMILES): C=C1C(=O)[C@]23[C@H](OC(=O)[C@H](CCc4ccccc4)NC(=O)OC(C)(C)C)[C@H]1C[C@H](O)[C@H]2[C@]1(COC(C)=O)CCCC(C)(C)[C@H]1C[C@H]3OC
IC50 (TE-1 [1]): 1.63 µM

IC50 (MCF7): 22.2 µM | IC50 (A549): 5.86 µM | IC50 (MGC-803): 9.52 µM | solubility [2]: Soluble
Structure (SMILES): C=C1C(=O)[C@]23[C@H](OC(=O)[C@@H](N)CCCCN)[C@H]1C[C@H](O)[C@H]2[C@]1(COC(C)=O)CCCC(C)(C)[C@H]1C[C@H]3OC.O=C(O)C(F)(F)F.O=C(O)C(F)(F)F
IC50 (TE-1 [1]): 14.3 µM

IC50 (MCF7): 3.1 µM | IC50 (A549): 1.96 µM | IC50 (MGC-803): 3.66 µM | solubility [2]: Soluble
Structure (SMILES): C=C1C(=O)[C@]23[C@H](OC(=O)[C@@H](N)CCSC)[C@H]1C[C@H](O)[C@H]2[C@]1(COC(C)=O)CCCC(C)(C)[C@H]1C[C@H]3OC.O=C(O)C(F)(F)F
IC50 (TE-1 [1]): 1.6 µM

IC50 (MCF7): 3.68 µM | IC50 (A549): 11.4 µM | IC50 (MGC-803): 5.14 µM | solubility [2]: Soluble
Structure (SMILES): C=C1C(=O)[C@]23[C@H](OC(=O)CCCCCN)[C@H]1C[C@H](O)[C@H]2[C@]1(COC(C)=O)CCCC(C)(C)[C@H]1C[C@H]3OC.O=C(O)C(F)(F)F
IC50 (TE-1 [1]): 5.36 µM

IC50 (MCF7): 2.59 µM | IC50 (A549): 6.81 µM | IC50 (MGC-803): 4.93 µM | solubility [2]: Insoluble
Structure (SMILES): C=C1C(=O)[C@]23[C@H](OC(=O)[C@H](CCC)NC(=O)OC(C)(C)C)[C@H]1C[C@H](O)[C@H]2[C@]1(COC(C)=O)CCCC(C)(C)[C@H]1C[C@H]3OC
IC50 (TE-1 [1]): 1.82 µM

IC50 (MCF7): 1.7 µM | IC50 (A549): 4.24 µM | IC50 (MGC-803): 5.71 µM | solubility [2]: Insoluble
Structure (SMILES): C=C1C(=O)[C@]23[C@H](OC(=O)CNC(=O)OC(C)(C)C)[C@H]1C[C@H](O)[C@H]2[C@]1(COC(C)=O)CCCC(C)(C)[C@H]1C[C@H]3OC
IC50 (TE-1 [1]): 1.64 µM

IC50 (MCF7): 3.62 µM | IC50 (A549): 5.86 µM | IC50 (MGC-803): 5.35 µM | solubility [2]: Soluble
Structure (SMILES): C=C1C(=O)[C@]23[C@H](OC(=O)CNC)[C@H]1C[C@H](O)[C@H]2[C@]1(COC(C)=O)CCCC(C)(C)[C@H]1C[C@H]3OC.O=C(O)C(F)(F)F
IC50 (TE-1 [1]): 3.19 µM

Source: ChEMBL document CHEMBL4406842, “Synthesis and in vitro biological evaluation of novel derivatives of Flexicaulin A condensation with amino acid trifluoroacetate” (Eur J Med Chem, 2019)
